Data: US20140057953A1, “BIARYL DERIVATIVES AS SELECTIVE 17BETA-HYDROXYSTEROID DEHYDROGENASE TYPE 2 INHIBITORS” (priority 2011, published 2014)

Tests used:
ERβ = ERβ (Homo sapiens, UniProt Q92731); assay: ER affinity assay (ERβ), [3H]-E2 displacement; conditions: Relative Binding Affinity, E2 = 100%; recombinant human protein
Procedure: (§1) The binding affinity of selected compounds to the ERα and ERβ was determined according to Zimmermann et al. (Zimmermann, J. et al., 3. Steroid Biochem. Mol. Biol., 94:57-66 (2005)) using recombinant human proteins. Briefly, 0.25 μM of ERα or ERβ, respectively, were incubated with [^3H]-E2 (10 nM) and test compound for 1 h at room temperature. The potential inhibitors were dissolved in DMSO (5% final concentration). Evaluation of non-specific-binding was performed with diethylstilbestrol (10 μM). After incubation, ligand-receptor complexes were selectively bound to hydroxyapatite (5 g/60 ml TE-buffer). The formed complex was separated, washed and resuspended in ethanol. For radiodetection, scintillator cocktail (Quickszint 212, Zinsser Analytic, Frankfurt) was added and the samples were measured in a liquid scintillation counter (Rack Beta Primo 1209, Wallac, Turku). […] The compound concentration to displace 50% of the receptor bound [^3H]-E2 were determined. Unlabelled E2 was used as a reference. For determination of the relative binding affinity (RBA) the ratio was calculated according to the following equation: […]
(§2) After the assay was established and validated a modification was made to increase throughput. […] Results were reported as RBA ranges.

ERα = target: T1, ERα (Homo sapiens, UniProt P03372); assay: ER affinity assay (ERα), [3H]-E2 displacement; conditions: Relative Binding Affinity, E2 = 100%; recombinant human protein
T1 sequence (P03372 1-595): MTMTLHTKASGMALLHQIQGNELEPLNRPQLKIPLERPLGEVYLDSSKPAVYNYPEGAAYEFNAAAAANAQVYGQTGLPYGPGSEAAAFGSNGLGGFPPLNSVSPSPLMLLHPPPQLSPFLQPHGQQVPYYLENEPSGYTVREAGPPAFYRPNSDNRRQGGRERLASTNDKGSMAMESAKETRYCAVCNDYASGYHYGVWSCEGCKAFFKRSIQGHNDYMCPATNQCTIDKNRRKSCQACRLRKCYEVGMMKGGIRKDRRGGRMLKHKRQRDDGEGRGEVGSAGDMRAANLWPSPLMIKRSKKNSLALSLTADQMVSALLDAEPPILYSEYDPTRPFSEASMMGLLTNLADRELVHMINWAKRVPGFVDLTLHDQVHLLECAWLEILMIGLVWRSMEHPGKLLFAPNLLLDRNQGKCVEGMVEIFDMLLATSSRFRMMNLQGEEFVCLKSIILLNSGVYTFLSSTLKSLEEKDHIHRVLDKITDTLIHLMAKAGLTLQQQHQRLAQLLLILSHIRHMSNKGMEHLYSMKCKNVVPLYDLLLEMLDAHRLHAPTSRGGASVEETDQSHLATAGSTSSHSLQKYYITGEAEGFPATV
Procedure: as §1, §2

17β-HSD2 = target: T2, 17β-HSD2 (Homo sapiens, UniProt P37059); assay: Inhibition of 17β-HSD2 in cell-free assay; type: biochemical; parameters: 17β-HSD2 was obtained directly from the microsomal fraction; from tissue; host or cells: human placenta, microsomal fraction; conditions: inhibitor concentration 1 μM; human placenta, microsomal fraction, substrate E2 500 nM, cofactor NAD+ 1500 μM
T2 sequence (P37059 1-387): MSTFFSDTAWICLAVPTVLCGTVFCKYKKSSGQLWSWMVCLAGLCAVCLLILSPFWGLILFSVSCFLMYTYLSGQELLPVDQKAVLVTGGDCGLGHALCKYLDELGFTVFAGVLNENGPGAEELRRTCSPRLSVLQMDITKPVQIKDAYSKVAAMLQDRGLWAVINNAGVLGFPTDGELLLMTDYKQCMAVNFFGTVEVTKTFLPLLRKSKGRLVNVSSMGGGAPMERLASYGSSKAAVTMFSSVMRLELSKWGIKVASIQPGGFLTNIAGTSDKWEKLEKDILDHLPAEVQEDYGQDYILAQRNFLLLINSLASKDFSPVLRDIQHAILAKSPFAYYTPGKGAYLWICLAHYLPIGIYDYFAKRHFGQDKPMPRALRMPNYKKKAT
Procedure: (§3) Fresh human placenta was homogenized. Cytosolic and microsomal fractions were separated by centrifugation at 1000 g, 10000 g and 150000 g. 17β-HSD2 was obtained directly from the microsomal fraction. For the partial purification of 17β-HSD1, the cytosolic fraction was precipitated with ammonium sulfate. Aliquots containing 17β-HSD1 or 17β-HSD2 were stored frozen.
Inhibitor stock solutions were prepared in DMSO. Final concentration of DMSO was adjusted to 1% in all samples. The enzymatic reaction was started by addition of a mixture of unlabelled- and [^3H]-E2 (final concentration: 500 nM, 0.11 μCi). After 20 min at 37° C., the incubation was stopped with HgCl2 and the mixture was extracted with ether. After evaporation, the steroids were dissolved in acetonitrile. E1 and E2 were separated using acetonitrile/water (45:55) as mobile phase in a C18 RP chromatography column (Nucleodur C18, 3 μm, Macherey-Nagel, Duren) connected to a HPLC-system (Agilent 1100 Series, Agilent Technologies, Waldbronn). Detection and quantification of the steroids were performed using a radioflow detector (Berthold Technologies, Bad Wildbad). The conversion rate was calculated according to the following equation: […]

17β-HSD1 = target: T3, 17β-HSD1 (Homo sapiens, UniProt P14061); assay: Inhibition of 17β-HSD1 in cell-free assay; type: biochemical; conditions: human placenta, cytosolic fraction, substrate E1 500 nM, cofactor NADH 500 μM
T3 construct: For the partial purification of 17β-HSD1, the cytosolic fraction was precipitated with ammonium sulfate; from tissue; host or cells: human placenta, cytosolic fraction
T3 sequence (P14061 1-328): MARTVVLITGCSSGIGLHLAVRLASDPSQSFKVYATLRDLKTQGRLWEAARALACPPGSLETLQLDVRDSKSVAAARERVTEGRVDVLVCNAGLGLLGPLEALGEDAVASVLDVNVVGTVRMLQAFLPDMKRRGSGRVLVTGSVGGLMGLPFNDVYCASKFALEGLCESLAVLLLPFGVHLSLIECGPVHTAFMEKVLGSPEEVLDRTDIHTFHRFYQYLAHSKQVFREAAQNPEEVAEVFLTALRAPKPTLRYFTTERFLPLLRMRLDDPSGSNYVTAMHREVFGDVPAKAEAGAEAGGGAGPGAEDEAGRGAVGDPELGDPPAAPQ
Procedure: as §3
The 17β-HSD1 inhibition assay was performed similarly to the 17β-HSD2 test. The cytosolic fraction was incubated with NADH [500 μM], test compound and a mixture of unlabelled- and [^3H]-E1 (final concentration: 500 nM, 0.15 μCi) for 10 min at 37° C. Further treatment of the samples and HPLC separation was carried out as mentioned above for 17β-HSD2.

Sequence of ERβ (Q92731 whole entry): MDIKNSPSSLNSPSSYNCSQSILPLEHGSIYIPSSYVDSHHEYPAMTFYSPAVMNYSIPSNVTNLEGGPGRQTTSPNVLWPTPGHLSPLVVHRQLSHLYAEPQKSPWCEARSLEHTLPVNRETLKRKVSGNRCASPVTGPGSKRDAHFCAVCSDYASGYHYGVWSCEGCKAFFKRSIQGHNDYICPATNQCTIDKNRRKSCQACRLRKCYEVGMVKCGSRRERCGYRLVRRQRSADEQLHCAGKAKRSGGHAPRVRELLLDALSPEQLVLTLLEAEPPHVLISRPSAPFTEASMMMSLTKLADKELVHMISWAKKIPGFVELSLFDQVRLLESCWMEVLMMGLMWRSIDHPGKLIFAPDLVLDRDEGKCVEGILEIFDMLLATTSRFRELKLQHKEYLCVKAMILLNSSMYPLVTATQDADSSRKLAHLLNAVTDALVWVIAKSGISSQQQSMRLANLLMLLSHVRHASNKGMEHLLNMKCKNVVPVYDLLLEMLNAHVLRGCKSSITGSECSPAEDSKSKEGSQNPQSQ

| SMILES | ERβ RBA (%) (ERβ) | ERα RBA (%) (ERα) | other results |
| --- | --- | --- | --- |
| COc1cccc(CCN(C)C(=O)c2ccc(-c3ccccc3)s2)c1 [compound 19, N-(3-Methoxyphenethyl)-N-methyl-5-phenylthiophene-2-carboxamide] | – | – | inhibition at 1 µM (17β-HSD2): 18%; inhibition at 1 µM (17β-HSD1; inhibitor concentration 1 μM): 11% |
| CN(Cc1cccc(O)c1)C(=O)c1ccc(-c2ccccc2)s1 [compound 30, N-(3-Hydroxybenzyl)-N-methyl-5-phenylthiophene-2-carboxamide] | <0.1 | <0.1 | – |
| COc1cccc(CCN(C)C(=O)c2ccc(-c3cccc(OC)c3)s2)c1 [compound 17, N-(3-Methoxyphenethyl)-5-(3-methoxyphenyl)-N-methylthiophene-2-carboxamide] | – | – | inhibition at 1 µM (17β-HSD2): 31%; % inhibition 17β-HSD1 (17β-HSD1; inhibitor concentration 1 μM): n.i.^e |
| COc1cccc(N(C)C(=O)c2ccc(-c3cccc(C)c3)s2)c1 [compound 64, N-(3-methoxyphenyl)-N-methyl-5-m-tolylthiophene-2-carboxamide] | <0.1 | <0.1 | – |
| CN(Cc1cccc(O)c1)C(=O)c1cccc(-c2ccc(O)cc2)c1 [compound 6, 4′-Hydroxy-N-(3-hydroxybenzyl)-N-methylbiphenyl-3-carboxamide] | <0.1 | <0.1 | – |
| COc1cccc(-c2ccc(C(=O)N(C)c3cccc(OC)c3)s2)c1 [compound 47, N,5-bis(3-Methoxyphenyl)-N-methylthiophene-2-carboxamide] | <0.1 | <0.1 | – |
| COc1ccc(-c2ccc(C(=O)N(C)Cc3ccccc3)s2)cc1 [compound 35, N-Benzyl-5-(4-methoxyphenyl)-N-methylthiophene-2-carboxamide] | <0.1 | <0.1 | – |
| COc1ccc(-c2ccc(C(=O)N(C)Cc3cccc(OC)c3)s2)cc1 [compound 25, N-(3-Methoxybenzyl)-5-(4-methoxyphenyl)-N-methylthiophene-2-carboxamide] | <0.1 | <0.1 | – |
| Cc1cccc(-c2ccc(C(=O)N(C)c3ccccc3F)s2)c1 [compound 74, N-(2-fluorophenyl)-N-methyl-5-m-tolylthiophene-2-carboxamide] | <0.1 | <0.1 | – |
| COc1cccc(-c2ccc(C(=O)N(C)c3ccccc3)s2)c1 [compound 67, 5-(3-Methoxyphenyl)-N-methyl-N-phenylthiophene-2-carboxamide] | <0.1 | <0.1 | – |
| COc1cccc(-c2ccc(C(=O)N(C)Cc3cccc(O)c3)s2)c1 [compound 45, N-(3-Hydroxybenzyl)-5-(3-methoxyphenyl)-N-methylthiophene-2-carboxamide] | <0.1 | <0.1 | IC50 (17β-HSD1): 23.3 µM |
| COc1cccc(N(C)C(=O)c2ccc(-c3cccc(C)c3F)s2)c1 [compound 66, 5-(2-Fluoro-3-methylphenyl)-N-(3-methoxyphenyl)-N-methylthiophene-2-carboxamide] | <0.1 | <0.1 | – |
| COc1cccc(N(C)C(=O)c2ccc(-c3c(F)ccc(OC)c3F)s2)c1 [compound 65, 5-(2,6-Difluoro-3-methoxyphenyl)-N-(3-methoxyphenyl)-N-methylthiophene-2-carboxamide] | <0.1 | <0.1 | – |
| CN(Cc1cccc(O)c1)C(=O)c1ccc(-c2ccc(F)cc2)s1 [compound 42, 5-(4-Fluorophenyl)-N-(3-hydroxybenzyl)-N-methylthiophene-2-carboxamide] | <0.1 | <0.1 | – |

Continued, in another order:

| ERβ RBA (%) (ERβ) | ERα RBA (%) (ERα) | SMILES | other results |
| --- | --- | --- | --- |
| <0.1 | <0.1 | COc1cccc(N(C)C(=O)c2ccc(-c3cccc(SC)c3)s2)c1 [compound 63, N-(3-methoxyphenyl)-N-methyl-5-(3-(methylthio)phenyl)thiophene-2-carboxamide] | – |
| <0.1 | <0.1 | COc1ccc(-c2ccc(C(=O)N(C)c3cccc(OC)c3)s2)cc1 [compound 55, N-(3-Methoxyphenyl)-5-(4-methoxyphenyl)-N-methylthiophene-2-carboxamide] | – |
| <0.1 | <0.1 | Cc1cccc(-c2ccc(C(=O)N(C)Cc3cccc(O)c3)cc2)c1 [compound 4, N-(3-hydroxybenzyl)-N,3′-dimethylbiphenyl-4-carboxamide] | – |
| <0.1 | <0.1 | COc1cccc(CN(C)C(=O)c2ccc(-c3cccc(OC)c3)cc2)c1 [compound 1, 3′-Methoxy-N-(3-methoxybenzyl)-N-methylbiphenyl-4-carboxamide] | – |
| <0.1 | <0.1 | COc1cccc(-c2ccc(C(=O)N(C)c3cccc(C)c3)s2)c1F [compound 72, 5-(2-Fluoro-3-methoxyphenyl)-N-methyl-N-(m-tolylthiophene)-2-carboxamide] | – |
| <0.1 | <0.1 | COc1cccc(-c2ccc(C(=O)N(C)Cc3ccccc3)s2)c1 [compound 33, N-Benzyl-5-(3-methoxyphenyl)-N-methylthiophene-2-carboxamide] | – |
